According to US4853401A, “Spiro-hydantoins as aldose reductase inhibitors” (priority 1987, dated 1989):

Legend:
[1] = tested on: sorbitol accumulation in sciatic nerves; assay: Effect of in vivo doses on sorbitol accumulation in sciatic nerves of diabetic rats; parameters: species or system Sprague Dawley rats
Excerpt: 2.2 Effect of "in vivo" doses on sorbitol accumulation in sciatic nerves and crystalline lenses of diabetic rats:
Estimates were made of the effects of the products on the proportion of plasma glucose and the sorbitol content of the crystalline lenses and sciatic nerves of rats.

[2] = tested on: accumulation of sorbitol in the crystalline lenses; assay: Preventive effect of single dose: sorbitol in crystalline lenses; assay type: in vivo, Sprague Dawley rats; conditions: for Accumulation of sorbitol in crystalline lenses, treated: 10 mg/kg oral
Description: (§1) 2.3. In vivo effects of a single dose of compound No. 2 (CP 3192 AR) on the variation in the proportion of plasma glucose and the accumulation of sorbitol in the crystalline lenses and sciatic nerves of diabetic rats.
(§2) 2.3.1. Preventive effect. CP 3192 AR was administered simultaneously with the induction of diabetes. The experiment was performed on 33 male Sprague Dawley rats weighing about 200 g.
(§3) At time 0 hours, 3 rats were sacrificed and used as non-diabetic controls. 30 fats fasted the previous day were made diabetic by an intraperitoneal injection of streptozotocin (75 mg/kg). A dose of 10 mg/kg of CP 3192 AR was simultaneously administered orally to 15 of the rats. The other 15 were given a placebo. 3 control rats and 3 rats treated with CP 3192 AR were sacrificed 2, 4, 8, 24 and 48 hours after induction of diabetes.
(§4) An estimate was made of the effects of the product on the proportion of plasma glucose and the sorbitol content of the crystalline lenses and sciatic nerves.

[3] = tested on: accumulation of sorbitol in the sciatic nerves; assay: Curative effect of single dose: sorbitol in sciatic nerves; assay type: in vivo, Sprague Dawley rats; conditions: for Accumulation of sorbitol in sciatic nerves, treated: 10 mg/kg oral
Description: (§5) 2.3.2. Curative effect: CP 3192 AR was administered 24 hours after induction of diabetes.
(§6) As before, the experiment was made on 33 male Sprague Dawley rats weighing about 200 g. The 33 rats, which had been fasted the previous day, were made diabetic by an intraperitoneal injection of streptozotocin (75 mg/kg).
(§7) 24 hours after induction of diabetes, 3 rats were sacrificed and used as diabetic controls. A dose of 10 mg/kg of CP 3192 AR was orally administered to 15 rats whereas the other 15 were given the excipient without an active product. 3 control rats and 3 rats treated with CP 3192 AR were sacrificed 2, 4, 8, 24 and 48 hours after administration of the product.
(§8) Estimates were made of the effects of the product on the proportion of plasma glucose and the sorbitol content of the crystalline lenses and sciatic nerves of rats made diabetic by streptozotocin.

[4] = Preventive effect of single dose: plasma glucose; assay type: in vivo, Sprague Dawley rats; conditions: for Plasma glucose, treated: 10 mg/kg oral
Description: as §1, §2, §3, §4

[5] = tested on: accumulation of sorbitol in the crystalline lenses; assay: Curative effect of single dose: sorbitol in crystalline lenses; assay type: in vivo, Sprague Dawley rats; conditions: for Accumulation of sorbitol in crystalline lenses, treated: 10 mg/kg oral
Description: as §5, §6, §7, §8

[6] = tested on: mice; assay: Teratogenic effect on mice; assay type: in vivo; conditions: oral doses of 100 mg/kg and 1 000 mg/kg
[7] = single dose 10 mg/kg, lenses and sciatic nerves

## CC(=O)OCN1C(=O)N(COC(C)=O)C2(C1=O)c1ccccc1-c1ccccc12 [Compound 2, bis-(1',3'-acetoxymethyl)-spiro-/fluorene-9,4'-imidazolidine/-2',5'-dione]
[1]; 0.3 mg/kg oral at 0, 7, 24 h
  % inhibition of sorbitol accumulation, Sciatic nerves: 42 ± 9%
[1]; 1 mg/kg oral at 0, 7, 24 h
  % inhibition of sorbitol accumulation, Sciatic nerves: 40 ± 17%
[1]; 3 mg/kg oral at 0, 7, 24 h
  % inhibition of sorbitol accumulation, Sciatic nerves: 68 ± 11%
[1]; 10 mg/kg oral at 0, 7, 24 h
  % inhibition of sorbitol accumulation, Sciatic nerves: 79 ± 9%
[1]; Rattus norvegicus, 27 h, sciatic nerves, diabetic rats, oral, read-out: ED50 (dose at which measured inhibition of aldose reductase activity is 50%)
  ED50: 1 mg/kg
[1]; sciatic nerves
  therapeutic index MED/ED50, sciatic nerves: above 3 000
[2]; 2 h
  Accumulation of sorbitol in crystalline lenses, treated: 3 ± 0 µg
[2]; 4 h, p < 0.005
  Accumulation of sorbitol in crystalline lenses, treated: 6.3 ± 0.6 µg
[2]; 8 h, p < 0.05
  Accumulation of sorbitol in crystalline lenses, treated: 12.3 ± 4.0 µg
[2]; 24 h, p < 0.05
  Accumulation of sorbitol in crystalline lenses, treated: 52 ± 10.1 µg
[2]; 48 h
  Accumulation of sorbitol in crystalline lenses, treated: 92.7 ± 18.6 µg
[2]; [7]
  duration of effect on sorbitol accumulation: at least 48 hours
  onset of effect on sorbitol accumulation: observed as soon as soribol began to accumulate
[3]; 2 h after administration
  Accumulation of sorbitol in sciatic nerves, treated: 4.8 ± 2.0 µg
[3]; 4 h after administration, n = 1
  Accumulation of sorbitol in sciatic nerves, treated: 4.0 µg
[3]; 8 h after administration, n = 1
  Accumulation of sorbitol in sciatic nerves, treated: 2.2 µg
[3]; 24 h after administration
  Accumulation of sorbitol in sciatic nerves, treated: 2.5 ± 0.4 µg
[3]; 48 h after administration
  Accumulation of sorbitol in sciatic nerves, treated: 5.9 ± 1.8 µg
[3]; single dose 10 mg/kg
  proportion of sorbitol in sciatic nerves (in words): greatly reduces
[4]; 2 h
  Plasma glucose, treated: 436 ± 45 mg/100 ml
[4]; 4 h
  Plasma glucose, treated: 359 ± 45 mg/100 ml
[4]; 8 h
  Plasma glucose, treated: 264 ± 73 mg/100 ml
[4]; 24 h
  Plasma glucose, treated: 485 ± 35 mg/100 ml
[4]; 48 h
  Plasma glucose, treated: 447 ± 34 mg/100 ml
[4]; single oral dose 10 mg/kg
  effect on the proportion of plasma glucose: no effect
[5]; 2 h after administration
  Accumulation of sorbitol in crystalline lenses, treated: 103 ± 27 µg
[5]; 4 h after administration
  Accumulation of sorbitol in crystalline lenses, treated: 99 ± 5 µg
[5]; 8 h after administration
  Accumulation of sorbitol in crystalline lenses, treated: 125 ± 8 µg
[5]; 24 h after administration, p <0.0005
  Accumulation of sorbitol in crystalline lenses, treated: 73 ± 18 µg
[5]; 48 h after administration, p < 0.05
  Accumulation of sorbitol in crystalline lenses, treated: 142 ± 47 µg
[5]; single dose 10 mg/kg
  accumulation of sorbitol in crystalline lenses (in words): completely inhibits
[5]; [7]
  duration of effect: ≥ 48 h
[6]
  teratogenic effect: does not have a mutagenic effect in the Ames test or teratogenic effect on mice
